In patent US8802597B2, “Herbicidal pyrimidines” (E I du Pont de Nemours and Company, priority 2003, dated 2014):

Tests used:
Format in all cases: in vivo
kochia (Kochia scoparia) [1] = test: Test G pre/postemergence
Outline: (§1)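 Pre- and postemergence greenhouse test; compound in non-phytotoxic solvent/surfactant mix. Post timing: 2–18 cm plants, 1- to 4-leaf. Visual rating vs controls at 12–21 d, 0 (no effect) to 100 (complete control).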

[2] = test system: purple nutsedge (Cyperus rotundus); test: Test G pre/postemergence
Outline: as §1

[3] = test system: common purslane (Portulaca oleracea); test: Test G pre/postemergence
Outline: as §1

[4] = test system: common sowthistle (Sonchus oleraceous); test: Test G pre/postemergence
Outline: as §1

kochia (Kochia scoparia) [5] = test: Test D pre/postemergence; conditions: scale 0 to 100 (100 = complete control)
Outline: (§2)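 Visual injury score, 0–100 (0 = no effect, 100 = complete control), vs untreated controls after 15–25 d in controlled environment. Pre- and postemergence treatments run in parallel; postemergence at 1–4 leaf, 2–18 cm. Compounds in non-phytotoxic solvent with surfactant.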

[6] = test system: lambsquarters (Chenopodium album); test: Test D pre/postemergence; conditions: scale 0 to 100 (100 = complete control)
Outline: as §2

[7] = test system: Russian thistle (Salsola kali); test: Test D pre/postemergence; conditions: scale 0 to 100 (100 = complete control)
Outline: as §2

[8] = test system: wild buckwheat (Polygonum convolvulus); test: Test D pre/postemergence; conditions: scale 0 to 100 (100 = complete control)
Outline: as §2

[9] = test system: catchweed bedstraw (galium; Galium aparine); test: Test D pre/postemergence; conditions: scale 0 to 100 (100 = complete control)
Outline: as §2

[10] = test system: wild mustard (Sinapis arvensis); test: Test D pre/postemergence; conditions: scale 0 to 100 (100 = complete control)
Outline: as §2

[11] = test system: wheat (Triticum aestivum); test: Test D pre/postemergence; conditions: scale 0 to 100 (100 = complete control)
Outline: as §2

[12] = Postemergence, 250 g ai/ha, scale 0 to 100
[13] = Postemergence, 16 g ai/ha, scale 0 to 100
[14] = Postemergence, 31 g ai/ha, scale 0 to 100
[15] = Postemergence, 62 g ai/ha, scale 0 to 100
[16] = Postemergence, 125 g ai/ha, scale 0 to 100
[17] = Preemergence, 16 g ai/ha, scale 0-100
[18] = Preemergence, 31 g ai/ha, scale 0-100
[19] = Preemergence, 62 g ai/ha, scale 0-100
[20] = Preemergence, 125 g ai/ha, scale 0-100
[21] = Preemergence, 250 g ai/ha, scale 0-100

Nc1nc(C2CC2)nc(C(=O)OCc2ccccc2)c1Br [Compound 22, phenylmethyl 6-amino-5-bromo-2-cyclopropyl-4-pyrimidinecarboxylate]
Plant response rating, Kochia (kochia (Kochia scoparia) [1]; [12]): 100
Plant response rating, Kochia (kochia (Kochia scoparia) [1]; [13]): 98
Plant response rating, Kochia (kochia (Kochia scoparia) [1]; [14]): 98
Plant response rating, Kochia (kochia (Kochia scoparia) [1]; [15]): 98
Plant response rating, Kochia (kochia (Kochia scoparia) [1]; [16]): 100
Plant response rating, Kochia (kochia (Kochia scoparia) [1]; [17]): 35
Plant response rating, Kochia (kochia (Kochia scoparia) [1]; [18]): 70
Plant response rating, Kochia (kochia (Kochia scoparia) [1]; [19]): 98
Plant response rating, Kochia (kochia (Kochia scoparia) [1]; [20]): 100
Plant response rating, Kochia (kochia (Kochia scoparia) [1]; [21]): 100
Plant response rating, Nutsedge, Purple [2, 12]: 15
Plant response rating, Nutsedge, Purple [2, 13]: 0
Plant response rating, Nutsedge, Purple [2, 14]: 0
Plant response rating, Nutsedge, Purple [2, 15]: 0
Plant response rating, Nutsedge, Purple [2, 16]: 0
Plant response rating, Nutsedge, Purple [2, 17]: 0
Plant response rating, Nutsedge, Purple [2, 18]: 0
Plant response rating, Nutsedge, Purple [2, 19]: 30
Plant response rating, Nutsedge, Purple [2, 20]: 40
Plant response rating, Nutsedge, Purple [2, 21]: 50
Plant response rating, Purslane [3, 12]: 98
Plant response rating, Purslane [3, 13]: 50
Plant response rating, Purslane [3, 14]: 55
Plant response rating, Purslane [3, 15]: 85
Plant response rating, Purslane [3, 16]: 95
Plant response rating, Purslane [3, 17]: 0
Plant response rating, Purslane [3, 18]: 0
Plant response rating, Purslane [3, 19]: 50
Plant response rating, Purslane [3, 20]: 70
Plant response rating, Purslane [3, 21]: 75
Plant response rating, Sowthistle [4, 12]: 100
Plant response rating, Sowthistle [4, 13]: 75
Plant response rating, Sowthistle [4, 14]: 85
Plant response rating, Sowthistle [4, 15]: 95
Plant response rating, Sowthistle [4, 16]: 100
Plant response rating, Sowthistle [4, 17]: 35
Plant response rating, Sowthistle [4, 18]: 75
Plant response rating, Sowthistle [4, 19]: 90
Plant response rating, Sowthistle [4, 20]: 100
Plant response rating, Sowthistle [4, 21]: 100

COC(=O)c1nc(C2CC2C)nc(N)c1Br (stereo not drawn) [Compound 28]
Plant response rating, Kochia (kochia (Kochia scoparia) [5]; Postemergence, 62 g ai/ha): 70
Plant response rating, Kochia (kochia (Kochia scoparia) [5]; Postemergence, 125 g ai/ha): 75
Plant response rating, Kochia (kochia (Kochia scoparia) [5]; Postemergence, 250 g ai/ha): 75
Plant response rating, Kochia (kochia (Kochia scoparia) [5]; Preemergence, 62 g ai/ha): 45
Plant response rating, Kochia (kochia (Kochia scoparia) [5]; Preemergence, 125 g ai/ha): 80
Plant response rating, Kochia (kochia (Kochia scoparia) [5]; Preemergence, 250 g ai/ha): 100
Plant response rating, Lambsquarters ([6]; Postemergence, 62 g ai/ha): 65
Plant response rating, Lambsquarters ([6]; Postemergence, 125 g ai/ha): 70
Plant response rating, Lambsquarters ([6]; Postemergence, 250 g ai/ha): 75
Plant response rating, Lambsquarters ([6]; Preemergence, 62 g ai/ha): 60
Plant response rating, Lambsquarters ([6]; Preemergence, 125 g ai/ha): 60
Plant response rating, Lambsquarters ([6]; Preemergence, 250 g ai/ha): 60
Plant response rating, Russian Thistle ([7]; Postemergence, 62 g ai/ha): 65
Plant response rating, Russian Thistle ([7]; Postemergence, 125 g ai/ha): 70
Plant response rating, Russian Thistle ([7]; Postemergence, 250 g ai/ha): 70
Plant response rating, Russian Thistle ([7]; Preemergence, 62 g ai/ha): 45
Plant response rating, Russian Thistle ([7]; Preemergence, 125 g ai/ha): 80
Plant response rating, Russian Thistle ([7]; Preemergence, 250 g ai/ha): 100
Plant response rating, Buckwheat, Wild ([8]; Postemergence, 62 g ai/ha): 35
Plant response rating, Buckwheat, Wild ([8]; Postemergence, 125 g ai/ha): 55
Plant response rating, Buckwheat, Wild ([8]; Postemergence, 250 g ai/ha): 60
Plant response rating, Buckwheat, Wild ([8]; Preemergence, 62 g ai/ha): 45
Plant response rating, Buckwheat, Wild ([8]; Preemergence, 125 g ai/ha): 45
Plant response rating, Buckwheat, Wild ([8]; Preemergence, 250 g ai/ha): 60
Plant response rating, Galium ([9]; Postemergence, 62 g ai/ha): 100
Plant response rating, Galium ([9]; Postemergence, 250 g ai/ha): 100
Plant response rating, Galium ([9]; Preemergence, 62 g ai/ha): 100
Plant response rating, Galium ([9]; Preemergence, 125 g ai/ha): 100
Plant response rating, Galium ([9]; Preemergence, 250 g ai/ha): 100
Plant response rating, Mustard, Wild ([10]; Postemergence, 62 g ai/ha): 45
Plant response rating, Mustard, Wild ([10]; Postemergence, 125 g ai/ha): 60
Plant response rating, Mustard, Wild ([10]; Postemergence, 250 g ai/ha): 60
Plant response rating, Mustard, Wild ([10]; Preemergence, 62 g ai/ha): 60
Plant response rating, Mustard, Wild ([10]; Preemergence, 125 g ai/ha): 60
Plant response rating, Mustard, Wild ([10]; Preemergence, 250 g ai/ha): 60
Plant response rating, Wheat ([11]; Postemergence, 62 g ai/ha): 20
Plant response rating, Wheat ([11]; Postemergence, 125 g ai/ha): 35
Plant response rating, Wheat ([11]; Postemergence, 250 g ai/ha): 35
Plant response rating, Wheat ([11]; Preemergence, 62 g ai/ha): 20
Plant response rating, Wheat ([11]; Preemergence, 125 g ai/ha): 35
Plant response rating, Wheat ([11]; Preemergence, 250 g ai/ha): 35
